Measured values published in publication PMC8041433 (Environmental Health Perspectives, 2021).
Where “and” joins values, the source holds several entries; their conditions need not be identical. Equal values may be shown once. Where a name gives a salt, the structure may show the parent alone. Read-outs that look alike come from different tables or passages of the source.

Key:
AChE in SH-SY5Y cells = AChE in SH-SY5Y cells (Homo sapiens, UniProt P22303); experiment: cell-based
recombinant human AChE [1] = molecular target: T1, recombinant human AChE (Homo sapiens, UniProt P22303); experiment: biochemical
recombinant human AChE [2] = molecular target: T1, recombinant human AChE
[3] = molecular target: AChE in SH-SY5Y spheroids (Homo sapiens, UniProt P22303); experiment: cell-based; conditions: potency (IC50)
recombinant human AChE [4] = molecular target: T1, recombinant human AChE; experiment: biochemical; assay type: biochemical; conditions: for AC50: AC50 (uM)
recombinant human AChE [5] = molecular target: T1, recombinant human AChE; experiment: biochemical; remark: listed apart in the source
[6] = molecular target: AChE in neural stem cells (Homo sapiens, UniProt P22303); experiment: cell-based
[7] = molecular target: AChE in neural stem cell spheroids (Homo sapiens, UniProt P22303); experiment: cell-based; conditions: for IC50: potency (IC50)
recombinant human AChE [8] = molecular target: T1, recombinant human AChE; experiment: biochemical; remark: listed apart in the source
[9] = potency (IC50), SH-SY5Y cells monolayer
[10] = potency (IC50), Enzyme with microsomes
[11] = Neural stem cell spheroid (24 h)
[12] = Neural stem cell spheroid (48 h)
For IR or R in this document: key: Reversible (R); Irreversible (IR); ND, not detected in enzyme-based AChE inhibition assay from current study.

Sequence of AChE in neural stem cells (P22303 32-614): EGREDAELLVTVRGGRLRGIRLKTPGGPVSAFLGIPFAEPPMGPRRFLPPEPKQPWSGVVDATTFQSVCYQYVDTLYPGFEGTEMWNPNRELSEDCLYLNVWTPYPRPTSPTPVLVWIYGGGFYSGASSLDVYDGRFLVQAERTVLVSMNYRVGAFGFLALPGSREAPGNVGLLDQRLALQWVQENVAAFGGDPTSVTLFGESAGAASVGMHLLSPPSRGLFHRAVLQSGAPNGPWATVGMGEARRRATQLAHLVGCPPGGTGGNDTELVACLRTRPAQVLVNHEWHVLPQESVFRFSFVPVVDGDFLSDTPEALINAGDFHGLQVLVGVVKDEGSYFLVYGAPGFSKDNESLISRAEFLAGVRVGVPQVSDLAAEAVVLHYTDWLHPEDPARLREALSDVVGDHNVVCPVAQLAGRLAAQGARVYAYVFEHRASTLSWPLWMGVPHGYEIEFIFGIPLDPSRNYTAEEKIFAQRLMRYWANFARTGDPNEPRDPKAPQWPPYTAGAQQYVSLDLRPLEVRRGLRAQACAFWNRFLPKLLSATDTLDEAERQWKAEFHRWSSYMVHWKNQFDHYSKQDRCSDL
Sequence of AChE in neural stem cell spheroids (P22303 32-614): as above
T1 sequence (P22303 32-614): as above
Sequence of AChE in SH-SY5Y spheroids (P22303 32-614): as above
Sequence of AChE in SH-SY5Y cells (P22303 32-614): as above

| Compound | CC-v2 (curve classes) (AChE in SH-SY5Y cells) | IC50 (AChE in SH-SY5Y cells; IC50 (uM)) | IC50 (AChE in SH-SY5Y cells; [9]) [µM] | IC50 (recombinant human AChE [1]) [µM] | CC-v2 (curve classes) (recombinant human AChE [2]) | IC50 ([3]; SH-SY5Y spheroids (24 h)) [µM] | IC50 ([3]; SH-SY5Y spheroids (48 h)) [µM] | AC50 (recombinant human AChE [4]) | IC50 (recombinant human AChE [5]; [10]) [µM] | IC50 [6] [µM] | IC50 [7, 11] [µM] | IC50 [7, 12] [µM] | CC-v2 (curve classes) (recombinant human AChE [8]) | IC50 (recombinant human AChE [8]; potency (IC50), Enzyme) [µM] | Efficacy (recombinant human AChE [2]) | Efficacy (recombinant human AChE [8]) | IR or R (recombinant human AChE [4]) | other results |
| --- | --- | --- | --- | --- | --- | --- | --- | --- | --- | --- | --- | --- | --- | --- | --- | --- | --- | --- |
| CNC(=O)O/N=C/C(C)(C)[S+](C)[O-] (stereo not shown) [Aldicarb sulfoxide] | -1.1 | 0.354 µM and 0.322 µM and 0.397 µM and 0.287 µM | 0.67 ± 0.04 | 0.78 ± 0.22 | -1.1 | 0.46 ± 0.08 | 0.56 | 498 nM and 789 nM and 885 nM and 993 nM and 1.11 µM and 559 nM (2×) and 198 nM and 627 nM | 0.68 ± 0.09 | 0.34 ± 0.04 | 0.24 ± 0.03 | 0.27 ± 0.17 | -1.1 | 0.41 ± 0.02 |  |  |  | fold more potent than aldicarb (recombinant human AChE [8]): 15 fold; IC50 (recombinant human AChE [8]; IC50): 0.61 µM |
| CNC(=O)Oc1ccc(N(C)C)c(C)c1 [Aminocarb] | -1.1 | 5.64 µM and 7.1 µM and 6.33 µM | 5 ± 0.57 | 9.57 ± 0.62 | -2.1 | 12.3 ± 9.41 | 6.85 ± 3.73 | 17.7 µM and 22.2 µM and 12.5 µM and 28 µM and 25 µM and 7.03 µM and 11.1 µM and 7.89 µM | 8.21 ± 0.55 | 11.7 ± 2.1 | 25.7 ± 7.15 | 29.1 | -1.1 | 7.92 ± 0.91 | -71.886 | -98.887 |  |  |
| CCN1CCCC1CNC(=O)c1cc(S(=O)(=O)CC)c(N)cc1OC (stereo not shown) [Amisulpride, reference compound] |  | 21.9 µM and 34.7 µM and 38.9 µM | 30.7 | 24.3 | -2.4 | 11.1 | 28.6 | 17.2 µM (2×) and 6.85 µM and 19.3 µM (2×) and 3.43 µM and 15.3 µM and 21.7 µM | 21.8 | 17.2 |  | 12.1 | -2.2 | 14.3 | -30.734 | -62.971 | R | IC50 (recombinant human AChE [5]; IC50 (uM)): 38.9 µM; potency (IC50), Neural stem cell spheroid (24 h) [7]: Inactive; IC50 (recombinant human AChE [8]; IC50 (uM)): 15.5 µM |
| COP(=O)(OC)SCn1c(=O)oc2cc(Cl)cnc21 [Azamethiphos] | -1.1 | 3.56 µM and 3.17 µM | 2.81 ± 0.32 | 3.81 ± 0.25 | -2.1 | 4.05 ± 2.65 | 3.3 ± 0.59 | 11.1 µM and 15.7 µM and 14 µM and 39.5 µM and 35.2 µM and 17.7 µM and 7.03 µM and 7.89 µM and 9.93 µM | 6.34 ± 1.18 | 4.79 ± 0.31 | 1.82 ± 0.76 | 3.08 ± 0.77 | -1.1 | 1.91 ± 0.26 | -92.198 | -98.261 |  |  |
| CN1C(=O)COc2c(C(=O)NC3CN4CCC3CC4)cc(Cl)cc21 (stereo not shown) [Azasetron hydrochloride, reference compound] | -2.1 and -2.2 | 38.9 µM and 34.7 µM and 17.4 µM | 6.6 | 8.98 ± 0.61 | 4 | 9.64 | 6.85 | 17.2 µM (2×) and 3.43 µM and 21.7 µM and 19.3 µM (2×) and 12.2 µM (2×) and 15.3 µM | 8.97 | 6.88 | 16.5 | 18.8 | -2.2 | 7.72 | 0 | -34.351 | R | IC50 (recombinant human AChE [8]; IC50 (uM)): 30.9 µM |
| CCOP(=S)(OCC)SCn1nnc2ccccc2c1=O [Azinphos-ethyl] | -1.1 | 12.6 µM and 11.2 µM and 15.9 µM | 10.9 | 22.5 ± 4.21 | -1.1 | 25.2 | 12 | 49.8 µM (2×) and 55.9 µM (2×) and 70.3 µM and 39.5 µM and 44.4 µM | 2.14 | 4.79 | 2.23 | 4.36 | -2.1 | 42.8 | -98.316 | -105.247 |  |  |
| CNC(=O)Oc1cccc2c1OC(C)(C)O2 [Bendiocarb] | -1.1 |  | 1.07 ± 0.06 | 0.92 ± 0.06 | -1.1 | 44.7 ± 19.4 | 54.1 ± 7.44 | 70.3 µM (2×) and 78.9 µM and 88.5 µM (2×) and 55.9 µM and 62.7 µM | 0.88 | 46.2 ± 3.12 | 45.2 ± 10.3 | 47.1 | -1.1 | 0.51 ± 0.03 |  |  | R |  |
| CCOC(=O)CCN(SN(C)C(=O)Oc1cccc2c1OC(C)(C)C2)C(C)C [Benfuracarb] | -1.1 | 0.252 µM and 0.356 µM and 0.0448 µM | 1.25 | 1.85 ± 0.24 | -1.1 | 1.76 | 0.84 | 0.885 µM and 0.703 µM and 0.789 µM and 1.25 µM and 0.993 µM and 0.627 µM and 0.444 µM and 0.314 µM and 0.498 µM | 1.4 | 7.67 | 12.1 | 12.6 | -1.1 | 4.97 | -96.321 | -95.401 |  |  |
| CCOP(=S)(OCC)Oc1ccc2c(C)c(Cl)c(=O)oc2c1 [Coumaphos] | 4 and -1.1 and -2.1 | 12.6 µM and 22.7 µM and 22.4 µM and 28.6 µM and 17.8 µM and 12.8 µM |  |  |  | 27.1 | 20.6 | 24.3 µM and 27.3 µM | 5.51 | 22.6 | 21.1 | 21.4 | 4 and -2.2 and -2.1 |  |  |  |  | potency (IC50), SH-SY5Y cells monolayer (AChE in SH-SY5Y cells): Inactive; potency (IC50), Enzyme-based assay with heat-inactivated microsomes (recombinant human AChE [1]): Inactive; AChE inhibition (result in words) (recombinant human AChE [8]): did not show effects; potency (IC50), Enzyme (recombinant human AChE [8]): Inactive |
| CCOP(=S)(OCC)Oc1cc(C)nc(C(C)C)n1 [Diazinon] | 4 and -2.1 and -1.1 |  | 11.3 ± 1.44 |  |  | 19 ± 11.8 | 20.1 ± 1.36 | 6.85 µM and 30.6 µM and 10.9 µM and 24.3 µM | 22.6 ± 1.52 | 0.41 ± 0.11 | 0.04 ± 0.01 | 0.09 ± 0.02 |  | 19.4 ± 2.22 |  |  |  | potency (IC50), Enzyme-based assay with heat-inactivated microsomes (recombinant human AChE [1]): Inactive; reversibility of AChE inhibition (result in words) (recombinant human AChE [4]): irreversibility |
| CCCCOc1ccc(C(=O)CCN2CCCCC2)cc1 [Dyclonine HCl, reference compound] |  |  | 20.2 ± 2.57 | 26.8 ± 10.1 |  | 17.4 ± 3.65 | 23.5 ± 3.24 | 27.3 µM (3×) and 30.6 µM (3×) and 19.3 µM and 34.3 µM | 31 ± 6.49 | 21.8 ± 2.5 | 16.3 ± 7.64 | 9.18 ± 9.47 |  | 20.9 ± 1.36 |  |  | R |  |
| CN1C[C@H](CNC(=O)OCc2ccccc2)C[C@@H]2c3cccc4c3c(cn4C)C[C@H]21 [Metergoline, reference compound] |  | 3.47 µM and 5.5 µM | 4.85 | 20.9 ± 1.36 |  | 1.73 ± 0.75 | 4.17 ± 0.27 | 21.7 µM and 12.2 µM (3×) and 13.7 µM and 27.3 µM and 9.68 µM (2×) and 10.9 µM | 21.7 | 13.2 ± 0.85 | 5.79 ± 1.63 | 5.8 ± 1.64 |  | 5.46 ± 1.98 |  |  |  |  |
| CCOP(=S)(OCC)Oc1cnc2ccccc2n1 [Quinalphos] | -2.1 and 4 | 35.6 µM | 46.4 | 36.8 ± 4.7 |  | 29.4 | 46.2 |  | 1.77 | 7.48 | 1.64 | 2.94 |  | 55.9 |  |  |  | AC50 (recombinant human AChE [4]; activity_60): 49.8 µM and 62.7 µM |
